US9192678B2, “Modified hyaluronic acid polymer compositions and related methods” (priority 2009, dated 2015)

Tested on: medial femoral condyle cartilage of goat stifle joint
Test: Modified Mankin score of femoral cartilage after intra-articular injection in goats (Example 34)
Format: in vivo
Method: A lightly crosslinked hydrogel prepared by reaction of vinyl-sulfone-modified hyaluronic acid with PEG-dithiol (HA-VS-PEG-(SH)2), containing the corticosteroid, triamcinolone acetonide, was injected into the intraarticular space of the stifle joint of female goats. Morphological, synovial fluid and histological examinations were conducted to evaluate local and systemic effects of such injections. Details of the study are provided below.
All test materials were stored at room temperature prior to use. For each Test or Control Material, a 1.5 ml dosage was prepared for each individual intra-articular injection.
A standard technique was used to inject each stifle joint, A 2-inch by 21 gauge sized sterile needle was introduced into the intra-articular space via an anteromedial approach. The lateral intercondylar notch wall of the medial femoral condyle was felt and the needle backed slightly off. 1.5 ml of the appropriate Test Material was injected into the right joint. The injection needle was removed and pressure was maintained on the injection site. The injected stifle joint was then cycled 20-times through a full range of motion. Immediately following this, the left stifle joint was cleansed with chlorohexidine scrub alternating with 70% isopropyl alcohol three times and painted with iodine solution and 1.5 ml of the Control Material was injected into the left stifle joint in a similar manner as described above for the right stifle. The injection needle was removed and pressure maintained on the injection site. The injected stifle joint was then cycled 20-times through a full range of motion.
Necropsy: Animals were humanely sacrificed at either 14 days or 28 days day post initial injection with an intravenous injection consisting of Diazepam 0.22 mg/kg and Ketamine 10 mg/kg for induction of general anesthesia. Following this, the anesthetized animals were given an IV overdose of concentrated potassium chloride (KCl) until the cardiac arrest had been verified.
Immediately after dissection and following gross joint surface evaluation a sagital section of each joint was cut through the medial femoral condyle (MFC). These sections were placed individually in 10% neutral buffered formalin. The fixed tissue was shipped by overnight carrier to Premier Laboratories for processing. The right and left MFC sections were processed using standard histological techniques and stained with hematoxylin and eosin (H&E) and Safranin-O (SAF-O) with a fast green counter stain. The slides from the MFC sections were evaluated by the Mankin Scoring System for osteoarthritis as described in Table 12.

[1] = 28 day group, animal died prematurely (3837: 24 days, 3588: 19 days on study), not included in averages

Compound	Cells (modified Mankin), MEAN (female, goat, in vivo, 14 days)	Safranin-O Stain (modified Mankin), MEAN (female, goat, in vivo, 14 days)	Structure (modified Mankin), MEAN (female, goat, in vivo, 14 days)	Tide Mark Integrity (modified Mankin) (female, goat, in vivo, 14 days)	Tide Mark Integrity (modified Mankin), MEAN (female, goat, in vivo, 14 days)	Total Mankin Score, MEAN (female, goat, in vivo, 14 days)	Cells (modified Mankin), MEAN (female, goat, in vivo, 28 days)	Safranin-O Stain (modified Mankin), MEAN (female, goat, in vivo, 28 days)	Structure (modified Mankin), MEAN (female, goat, in vivo, 28 days)	Tide Mark Integrity (modified Mankin) (female, goat, in vivo, 28 days)	Tide Mark Integrity (modified Mankin), MEAN (female, goat, in vivo, 28 days)	Total Mankin Score, MEAN (female, goat, in vivo, 28 days)	Cells (modified Mankin) [1]	Safranin-O Stain (modified Mankin) [1]	Structure (modified Mankin) [1]	Tide Mark Integrity (modified Mankin) [1]	Total Mankin Score [1]	Safranin-O Stain (modified Mankin) (female, goat, in vivo, 28 days)
CC1(C)O[C@@H]2C[C@H]3[C@@H]4CCC5=CC(=O)C=C[C@]5(C)[C@@]4(F)[C@@H](O)C[C@]3(C)[C@]2(C(=O)CO)O1 [Triamcinolone Acetonide 2 mg/ml, triamcinolone acetonide]	0.7	3.0	2.7	0.0	0.0	6.3	2.3	3.3	2.7	0.0	0.0	8.3						
CC1(C)O[C@@H]2C[C@H]3[C@@H]4CCC5=CC(=O)C=C[C@]5(C)[C@@]4(F)[C@@H](O)C[C@]3(C)[C@]2(C(=O)CO)O1 [Triamcinolone Acetonide 8 mg/ml, triamcinolone acetonide]	0.3	3.3	1.7	0.0	0.0	5.3	2.0	4.0	3.0	0.0	0.0	9.0	3.0	3.0	4.0	0.0	10.0	4.0
